Source: ChEMBL document CHEMBL1201862, “PubChem BioAssay data set” (2004)
Activity calls are given as the source filed them.

Key:
[1] = molecular target: T1, Small ubiquitin-related modifier 1 (Homo sapiens, UniProt P63165); assay: inhibitors of SUMO1 partner interactions, dose response, biochemical, FRET (AID 624383); assay type: functional; settings: read-out: IC50_Mean
Genome polyprotein = Genome polyprotein (Hepatitis C virus, UniProt Q2Q167); assay: HCV core protein dimerization inhibitors, dose response, biochemical, TR-FRET (AID 2159); design: species or system Hepacivirus hominis;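 also: blocks dimerization of HCV core protein measured by TR-FRET between tagged core106 pairs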
[2] = molecular target: T2, Voltage-gated N-type calcium channel alpha-1B subunit/Amyloid beta A4 precursor protein-binding family A member 1 (Homo sapiens, UniProt Q00975+Q02410); assay: disruptors of Mint-PDZ/N-type channel peptide interaction – biochemical, HTRF, SAR follow-up (AID 2489); assay type: functional
[3] = molecular target: T2, Voltage-gated N-type calcium channel alpha-1B subunit/Amyloid beta A4 precursor protein-binding family A member 1; assay type: protein assay
Albumin = Albumin (Bos taurus, UniProt P02769); assay: Counterscreen for inhibitors of T-cell receptor (TCR)-CD3 interaction: Fluorescence-based biochemical high throughput dose response assay to identify inhibitors of T-cell receptor (TCR)-CD3 interaction using a TAMRA-labeled BSA probe.; assay type: functional
[4] = molecular target: T2, Voltage-gated N-type calcium channel alpha-1B subunit/Amyloid beta A4 precursor protein-binding family A member 1; assay type: protein assay; remark: listed apart in the source
[5] = molecular target: Induced myeloid leukemia cell differentiation protein Mcl-1 (Homo sapiens, UniProt Q07820); assay type: functional
[6] = molecular target: T1, Small ubiquitin-related modifier 1; assay: inhibitors of SUMO1 peptide binding, dose response, biochemical, fluorescence polarization, uHTS hits (AID 624382); assay type: functional; settings: read-out: IC50_Mean
SUMO E1/E2 = SUMO E1/E2 (Homo sapiens, UniProt P63279+Q9UBE0+Q9UBT2); assay: SAR analysis of SUMOylation using HTRF in an in-Vitro dose response assay. [Related pubchem assays (depositor defined):AID2006, AID2011, AID2018, AID2069, AID2658]; assay type: functional
[7] = molecular target: T2, Voltage-gated N-type calcium channel alpha-1B subunit/Amyloid beta A4 precursor protein-binding family A member 1; assay: disruptors of Mint-PDZ/N-type channel peptide interaction – biochemical, HTRF, set 2, SAR follow-up (AID 434980); assay type: functional
[8] = molecular target: G-protein coupled receptor 35 (Homo sapiens, UniProt Q9HC97); assay: GPR35 antagonists blocking zaprinast-driven arrestin recruitment, primary screen, imaging, U2OS, beta-arrestin-GFP, zaprinast agonist (AID 2058); assay type: functional;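 also: antagonist potency meaning inhibition of agonist-induced arrestin redistribution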

T2 sequence (Q00975 whole entry): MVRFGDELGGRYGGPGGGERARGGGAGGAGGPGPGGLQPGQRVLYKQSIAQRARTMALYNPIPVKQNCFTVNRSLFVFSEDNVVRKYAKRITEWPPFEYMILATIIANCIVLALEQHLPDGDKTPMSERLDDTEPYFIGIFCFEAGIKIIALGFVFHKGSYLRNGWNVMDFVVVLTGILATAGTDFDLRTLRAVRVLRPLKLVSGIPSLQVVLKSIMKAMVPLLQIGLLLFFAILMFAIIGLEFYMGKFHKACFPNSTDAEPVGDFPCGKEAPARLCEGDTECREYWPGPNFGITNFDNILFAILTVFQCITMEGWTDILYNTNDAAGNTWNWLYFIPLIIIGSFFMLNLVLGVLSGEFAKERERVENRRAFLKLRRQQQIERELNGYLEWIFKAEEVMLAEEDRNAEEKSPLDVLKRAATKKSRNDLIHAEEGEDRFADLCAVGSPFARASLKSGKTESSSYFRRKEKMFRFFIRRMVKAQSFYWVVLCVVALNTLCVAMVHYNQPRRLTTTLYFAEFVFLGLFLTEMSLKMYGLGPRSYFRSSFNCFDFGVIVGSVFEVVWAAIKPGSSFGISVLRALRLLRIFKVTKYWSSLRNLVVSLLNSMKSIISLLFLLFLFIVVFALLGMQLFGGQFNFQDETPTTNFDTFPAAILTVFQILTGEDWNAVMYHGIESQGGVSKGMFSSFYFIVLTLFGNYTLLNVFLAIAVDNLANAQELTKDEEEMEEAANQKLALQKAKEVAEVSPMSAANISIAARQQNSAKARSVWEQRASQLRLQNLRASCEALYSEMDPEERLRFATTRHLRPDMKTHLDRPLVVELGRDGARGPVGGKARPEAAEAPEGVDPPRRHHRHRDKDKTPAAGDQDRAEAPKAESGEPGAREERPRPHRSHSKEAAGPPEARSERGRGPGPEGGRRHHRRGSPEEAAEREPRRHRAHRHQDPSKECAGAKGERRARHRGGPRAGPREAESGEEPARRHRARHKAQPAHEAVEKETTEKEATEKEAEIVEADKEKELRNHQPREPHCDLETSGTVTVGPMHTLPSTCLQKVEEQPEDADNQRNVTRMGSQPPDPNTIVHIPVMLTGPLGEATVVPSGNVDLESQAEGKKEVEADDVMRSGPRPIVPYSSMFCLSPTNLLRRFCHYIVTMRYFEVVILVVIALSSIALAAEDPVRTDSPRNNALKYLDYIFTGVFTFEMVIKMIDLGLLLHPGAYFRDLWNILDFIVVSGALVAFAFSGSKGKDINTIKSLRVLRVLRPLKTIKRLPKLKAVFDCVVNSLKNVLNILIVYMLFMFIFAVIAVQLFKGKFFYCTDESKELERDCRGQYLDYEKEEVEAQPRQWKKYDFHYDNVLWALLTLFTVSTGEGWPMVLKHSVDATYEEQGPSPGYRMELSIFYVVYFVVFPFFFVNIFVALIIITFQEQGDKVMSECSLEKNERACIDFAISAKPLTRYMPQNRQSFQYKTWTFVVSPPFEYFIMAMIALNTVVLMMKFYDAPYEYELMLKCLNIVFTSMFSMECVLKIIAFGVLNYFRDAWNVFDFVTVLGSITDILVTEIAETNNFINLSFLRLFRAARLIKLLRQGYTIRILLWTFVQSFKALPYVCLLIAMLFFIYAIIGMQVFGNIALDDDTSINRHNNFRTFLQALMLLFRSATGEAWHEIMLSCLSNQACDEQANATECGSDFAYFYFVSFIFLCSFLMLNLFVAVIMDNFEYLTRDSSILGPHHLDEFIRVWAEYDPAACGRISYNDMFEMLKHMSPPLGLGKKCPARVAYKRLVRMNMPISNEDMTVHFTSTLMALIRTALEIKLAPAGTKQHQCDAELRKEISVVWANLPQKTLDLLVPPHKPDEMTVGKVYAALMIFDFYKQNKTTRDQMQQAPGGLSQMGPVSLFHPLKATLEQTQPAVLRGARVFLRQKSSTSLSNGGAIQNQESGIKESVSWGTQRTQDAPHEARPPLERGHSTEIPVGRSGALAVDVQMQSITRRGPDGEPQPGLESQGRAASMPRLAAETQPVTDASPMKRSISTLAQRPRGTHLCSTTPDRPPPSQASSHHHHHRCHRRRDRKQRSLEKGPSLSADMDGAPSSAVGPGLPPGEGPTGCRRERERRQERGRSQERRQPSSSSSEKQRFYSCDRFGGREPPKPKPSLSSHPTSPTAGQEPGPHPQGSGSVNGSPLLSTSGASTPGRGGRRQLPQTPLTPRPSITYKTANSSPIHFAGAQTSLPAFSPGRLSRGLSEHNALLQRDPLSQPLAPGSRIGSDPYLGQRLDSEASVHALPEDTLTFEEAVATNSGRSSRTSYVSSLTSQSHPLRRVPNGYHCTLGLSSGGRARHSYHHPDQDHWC
T2 sequence (Q02410 whole entry): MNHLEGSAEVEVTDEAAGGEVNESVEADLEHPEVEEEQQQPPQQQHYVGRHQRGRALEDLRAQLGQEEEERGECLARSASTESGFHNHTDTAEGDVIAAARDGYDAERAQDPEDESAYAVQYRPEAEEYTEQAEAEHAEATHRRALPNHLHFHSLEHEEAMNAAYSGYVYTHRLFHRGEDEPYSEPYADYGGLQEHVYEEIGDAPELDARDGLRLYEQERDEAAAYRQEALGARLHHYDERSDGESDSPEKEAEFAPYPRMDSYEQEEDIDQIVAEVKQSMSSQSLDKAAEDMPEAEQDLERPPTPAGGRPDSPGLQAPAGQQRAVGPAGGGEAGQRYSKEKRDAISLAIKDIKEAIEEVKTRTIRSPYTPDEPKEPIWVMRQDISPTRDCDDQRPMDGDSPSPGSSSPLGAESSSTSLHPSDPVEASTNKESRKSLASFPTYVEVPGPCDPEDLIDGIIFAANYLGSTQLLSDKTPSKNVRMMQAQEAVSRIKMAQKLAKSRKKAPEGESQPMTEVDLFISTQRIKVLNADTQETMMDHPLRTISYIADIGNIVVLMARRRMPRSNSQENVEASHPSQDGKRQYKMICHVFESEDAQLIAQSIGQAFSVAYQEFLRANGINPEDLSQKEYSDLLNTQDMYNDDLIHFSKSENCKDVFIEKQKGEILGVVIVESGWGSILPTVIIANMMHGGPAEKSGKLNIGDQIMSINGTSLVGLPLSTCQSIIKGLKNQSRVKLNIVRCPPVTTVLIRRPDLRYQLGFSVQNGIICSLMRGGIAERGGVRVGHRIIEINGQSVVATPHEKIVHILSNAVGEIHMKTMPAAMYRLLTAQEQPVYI
T1 sequence (P63165 whole entry): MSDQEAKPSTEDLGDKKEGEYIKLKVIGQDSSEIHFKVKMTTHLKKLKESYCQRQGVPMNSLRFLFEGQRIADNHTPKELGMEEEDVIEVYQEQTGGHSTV
Sequence of SUMO E1/E2 (Q9UBE0 whole entry): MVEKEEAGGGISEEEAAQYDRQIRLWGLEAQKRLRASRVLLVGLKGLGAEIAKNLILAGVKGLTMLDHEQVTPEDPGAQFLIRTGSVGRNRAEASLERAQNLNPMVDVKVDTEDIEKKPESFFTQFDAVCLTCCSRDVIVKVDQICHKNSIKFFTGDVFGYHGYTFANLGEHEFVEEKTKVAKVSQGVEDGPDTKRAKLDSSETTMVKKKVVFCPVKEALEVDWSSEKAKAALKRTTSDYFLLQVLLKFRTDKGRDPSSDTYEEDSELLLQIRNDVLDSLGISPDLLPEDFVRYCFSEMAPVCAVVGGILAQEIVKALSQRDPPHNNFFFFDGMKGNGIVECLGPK
Sequence of SUMO E1/E2 (Q9UBT2 whole entry): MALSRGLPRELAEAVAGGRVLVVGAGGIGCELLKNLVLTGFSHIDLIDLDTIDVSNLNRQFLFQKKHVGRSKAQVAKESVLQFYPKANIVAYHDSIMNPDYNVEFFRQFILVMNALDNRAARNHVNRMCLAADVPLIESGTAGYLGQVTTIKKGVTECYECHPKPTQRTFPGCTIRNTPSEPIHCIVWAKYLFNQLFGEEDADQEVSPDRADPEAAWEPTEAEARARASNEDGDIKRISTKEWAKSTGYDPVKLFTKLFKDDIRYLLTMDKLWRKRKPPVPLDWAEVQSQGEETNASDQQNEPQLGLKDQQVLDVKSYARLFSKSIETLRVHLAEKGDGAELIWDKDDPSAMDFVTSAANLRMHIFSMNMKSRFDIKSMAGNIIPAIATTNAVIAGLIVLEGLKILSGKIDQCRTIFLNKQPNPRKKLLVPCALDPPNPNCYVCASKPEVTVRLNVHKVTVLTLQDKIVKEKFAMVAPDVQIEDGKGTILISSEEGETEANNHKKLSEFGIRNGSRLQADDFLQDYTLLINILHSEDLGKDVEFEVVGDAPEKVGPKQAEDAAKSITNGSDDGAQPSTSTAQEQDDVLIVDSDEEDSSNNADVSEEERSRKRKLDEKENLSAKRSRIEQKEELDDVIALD
Sequence of SUMO E1/E2 (P63279 whole entry): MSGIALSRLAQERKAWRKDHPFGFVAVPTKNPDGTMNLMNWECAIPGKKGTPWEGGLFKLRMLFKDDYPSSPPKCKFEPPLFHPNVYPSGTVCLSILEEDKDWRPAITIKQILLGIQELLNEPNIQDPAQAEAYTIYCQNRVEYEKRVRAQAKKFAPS
Sequence of Induced myeloid leukemia cell differentiation protein Mcl-1 (Q07820 whole entry): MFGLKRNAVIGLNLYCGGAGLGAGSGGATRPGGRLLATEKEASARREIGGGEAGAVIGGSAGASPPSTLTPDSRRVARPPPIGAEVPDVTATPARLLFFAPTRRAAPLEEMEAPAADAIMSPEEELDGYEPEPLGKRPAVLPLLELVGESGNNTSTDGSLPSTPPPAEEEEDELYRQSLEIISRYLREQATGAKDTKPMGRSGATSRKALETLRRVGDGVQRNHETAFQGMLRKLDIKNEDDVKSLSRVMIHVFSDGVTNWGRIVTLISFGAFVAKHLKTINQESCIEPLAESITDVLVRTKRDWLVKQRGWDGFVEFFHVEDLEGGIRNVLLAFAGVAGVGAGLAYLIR
Sequence of Genome polyprotein (Q2Q167 whole entry): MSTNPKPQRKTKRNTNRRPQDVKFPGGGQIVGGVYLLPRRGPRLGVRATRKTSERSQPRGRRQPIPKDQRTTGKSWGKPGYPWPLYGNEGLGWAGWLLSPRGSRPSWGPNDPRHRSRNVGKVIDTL

IC50 [8]	Compound	IC50 [1]	IC50 (Genome polyprotein)	IC50 [2]	IC50 [3]	IC50 (Albumin)	IC50 [4]	IC50 [5]	IC50 [6]	IC50 (SUMO E1/E2)	IC50 [7]
–	CN(C(=O)COC(=O)c1cc(-c2ccco2)nc2ccccc12)C1CCS(=O)(=O)C1 (stereo unspecified)	4.99 µM (active)	> 49.8 µM (not active)	4.74 µM (active)	2.15 µM (active)	> 94.1 µM (inactive)	28.8 µM (active)	1.59 µM (active)	> 66.6 µM (inactive)	2.66 µM (active)	3.26 µM (active)
0.61 µM (active)	Cc1nnc(NC(=O)c2sc3nc(-c4cccs4)cc(C(F)(F)F)c3c2N)s1	–	–	–	–	–	–	–	–	–	–
